From PubChem BioAssay AID1918956 (Molecular Pharmacology Branch, DTP, NCI, 2023)
“And” between values parts separate entries of the source, which are not always exact repeats. Equal values may be shown once.

Test system: OVCAR-5 complex spheroids, viability
Assay: Anticancer human tumor OVCAR-5 cell line growth inhibition;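 note: spheroids exposed to agents for seven days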;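 for viability, T/C: 100% = DMSO vehicle control wells viability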
Settings: for viability, T/C: stronger effect = lower value
Description: Multicellular complex tumor spheroid response to LSD1 Inhibitor Iadademstat in combination with a variety of drugs and investigational agents in selected tumor cell lines
The current study was undertaken to assess response to LSD1 inhibitors in combination with standard-of-care drugs and investigational agents in solid tumor complex spheroid models as well as in the K-562 leukemia. Complex spheroids include a stromal component modeled by human endothelial cells (HUVEC) and fibroblasts modeled by human mesenchymal stem cells (MSCs). The concentration ranges selected for each drug and investigational agent were based upon clinically achievable concentrations if the clinical Cmax of the agent was known.
Compounds. The drugs and investigational agents used in this study are listed on Table 1. All of the agents used, including staurosporine (NSC755774) and gemcitabine (NSC613327), were obtained from the Developmental Therapeutics Program, NCI. FDA-approved anticancer drugs are available from the NCI at http://dtp.nci.nih.gov/branches/dscb/oncology_drugset_explanation.html. Drugs and investigational agents were >95% pure by proton nuclear magnetic resonance (NMR) and liquid chromatography/mass spectrometry (LC/MS). Stock solutions were prepared at 400x in DMSO, stored at -70 degrees C, and diluted in fresh medium prior to their use. The final concentration of DMSO in cell culture wells never exceeded 0.25% (v/v). The FDA-approved anticancer drug set is available from the Developmental Therapeutics Program at https://dtp.cancer.gov/organization/dscb/obtaining/available_plates.htm. All drugs and investigational agents were tested over a range starting from a high concentration at or near the clinical Cmax and decreasing in half-log increments. If the clinical Cmax for an agent had not been determined, the highest concentration tested was 10 microM.
Cell Lines. The patient-derived cancer cell (PDC) lines: 292921-168-R-J2-PDC, K24384-001-R-PDC, and 521955-158-R2-J5-PDC pancreatic carcinomas, 556581-035-R-J1 ovarian carcinoma, 324938-238-R-J1-PDC, 855422-203-R-J1-PDC and 883617-216-R-J1-PDC urothelial bladder carcinomas, 743489-274-T-PDC renal cell carcinoma, 138582-R-J1 Merkel cell tumor, K60290-347-R-J1 and K57222-313-R-J1-PDC glioblastomas, 653999-131-R-J2-PDC, LG0703-F948-PDC, and 349418-098-R-PDC non-small cell lung carcinomas, 885512-296-R-J2-PDC, 171881-019-R-J1-PDC breast carcinomas and 186277-243-T-J2-PDC and 233499-124-R-J2-PDC colon carcinomas were obtained from the NCI Patient-Derived Models Repository (PDMR, https://pdmr.cancer.gov). The established cell lines NCI/ADR-RES (RRID:CVCL_14520 and OVCAR-5 (RRID:CVCL_1628) ovarian carcinomas, 786-O (RRID:CVCL_1051) and A498 […] renal cell carcinoma, NCI-H211 (ATCC, cat. CRL-5824; RRID:CVCL_1529), NCI-H196 (ATCC, cat. CRL-5823, RRID:CVCL_1509), SW 1271 (ATCC, cat. CRL-2177, RRID:CVCL_1716) and NCI-H1876 (ATCC, cat. CRL-5902, RRID:CVCL_1503) small cell lung carcinomas, MDA-MB-231 (RRID:CVCL_0062) and MDA-MB-468 (RRID:CVCL_0419)breast carcinomas (10-12). Pooled donor human umbilical vein endothelial cells (HUVEC, Lonza, cat. CC-2519) and human mesenchymal stem cells (hMSC, Lonza, cat. PT-2501) were purchased from Lonza (Walkersville, MD).
Cell Culture. All cells were maintained in an incubator at 37 degrees C and 5% CO2 with 95% humidity. The PDC lines were cultured according to standard operating procedures established by the NCI PDMR (https://pdmr.cancer.gov). Briefly all PDCs were thawed and cultured in Matrigel-coated flasks prepared with a working solution of 1X Ham's F-12 nutrient mix, without supplementation (Invitrogen, Waltham, MA, cat. 11765054), 100 U/mL penicillin-streptomycin (Invitrogen, cat. 15140122), and 2.5% Matrigel (Corning Inc., Corning, NY, cat. 354248) for the first three passages. […]

CCc1c2c(nc3ccc(O)cc13)-c1cc3c(c(=O)n1C2)COC(=O)[C@]3(O)CC
viability, T/C (compound 0.000949 µM): 39.2% and 30.3% | viability, T/C (compound 0.003 µM): 21.2% and 19.1% | viability, T/C (compound 0.00949 µM): 8.48% and 7.2% | viability, T/C (compound 0.03 µM): 3.26% and 2.51% | viability, T/C (compound 0.0949 µM): 1.15% and 0.63% | viability, T/C (compound 0.3 µM): 0.68% and 0.54% | IC50 (curve of compound): < 0.949 nM

COc1cc(C2c3cc4c(cc3C(OC3OC5COC(C)OC5C(O)C3O)C3COC(=O)C23)OCO4)cc(OC)c1O (configuration not stated) + NC1CC1c1ccc(-c2cccc(O)c2)cc1
IC50 (curve of first compound, second compound 0.1 µM): 407 nM | IC50 (curve of first compound, second compound 0.316 µM): 503 nM | IC50 (curve of first compound, second compound 1 µM): 397 nM | IC50 (curve of first compound, second compound 3.16 µM): 422 nM | IC50 (curve of first compound, second compound 10 µM): 302 nM | viability, T/C (second compound 0.1 µM, first compound 0.00949 µM): 94.9% | viability, T/C (second compound 0.1 µM, first compound 0.03 µM): 93.3% | viability, T/C (second compound 0.1 µM, first compound 0.0949 µM): 80.2% | viability, T/C (second compound 0.1 µM, first compound 0.3 µM): 55.3% | viability, T/C (second compound 0.1 µM, first compound 0.949 µM): 36.1% | viability, T/C (second compound 0.1 µM, first compound 3 µM): 32.5% | viability, T/C (second compound 0.316 µM, first compound 0.00949 µM): 96.7% | viability, T/C (second compound 0.316 µM, first compound 0.03 µM): 109% | viability, T/C (second compound 0.316 µM, first compound 0.0949 µM): 91.8% | viability, T/C (second compound 0.316 µM, first compound 0.3 µM): 61.7% | viability, T/C (second compound 0.316 µM, first compound 0.949 µM): 35.8% | viability, T/C (second compound 0.316 µM, first compound 3 µM): 32.3% | viability, T/C (second compound 1 µM, first compound 0.00949 µM): 100% | viability, T/C (second compound 1 µM, first compound 0.03 µM): 103% | viability, T/C (second compound 1 µM, first compound 0.0949 µM): 85.5% | viability, T/C (second compound 1 µM, first compound 0.3 µM): 56.8% | viability, T/C (second compound 1 µM, first compound 0.949 µM): 31.4% | viability, T/C (second compound 1 µM, first compound 3 µM): 32.4% | viability, T/C (second compound 3.16 µM, first compound 0.00949 µM): 89.1% | viability, T/C (second compound 3.16 µM, first compound 0.03 µM): 85.2% | viability, T/C (second compound 3.16 µM, first compound 0.0949 µM): 74.9% | viability, T/C (second compound 3.16 µM, first compound 0.3 µM): 55% | viability, T/C (second compound 3.16 µM, first compound 0.949 µM): 38.4% | viability, T/C (second compound 3.16 µM, first compound 3 µM): 34.6% | viability, T/C (second compound 10 µM, first compound 0.00949 µM): 85.1% | viability, T/C (second compound 10 µM, first compound 0.03 µM): 88.8% | viability, T/C (second compound 10 µM, first compound 0.0949 µM): 67.5% | viability, T/C (second compound 10 µM, first compound 0.3 µM): 53.3% | viability, T/C (second compound 10 µM, first compound 0.949 µM): 35.2% | viability, T/C (second compound 10 µM, first compound 3 µM): 37%
